According to patent publication US20240092784A1, “CONDENSED HETEROCYCLIC COMPOUND” (NISSAN CHEMICAL CORPORATION, priority 2020, published 2024):

target: human SPR (Homo sapiens (Human), UniProt P35270); test: Evaluation Example 2: Measurement of human SPR inhibitory activity (seven concentrations, sepiapterin absorbance at 420 nm); assay type: biochemical; details: Evaluation Example 2, seven concentrations 0.14 nM to 100 nM, 240 minutes at room temperature, read-out: IC50
How it was run: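 Reactions ran 240 min at room temperature in 100 mM Tris-HCl pH 7.5 with 0.01% BSA. They contained tag-cleaved, E. coli-expressed full-length human SPR (diluted to 150 ng/mL), seven compound concentrations from 0.14 to 100 nM, and sepiapterin/NADPH added as a 120 μM/160 μM solution. Inhibition was calculated from sepiapterin absorbance at 420 nm.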

human SPR, sequence (P35270 whole entry): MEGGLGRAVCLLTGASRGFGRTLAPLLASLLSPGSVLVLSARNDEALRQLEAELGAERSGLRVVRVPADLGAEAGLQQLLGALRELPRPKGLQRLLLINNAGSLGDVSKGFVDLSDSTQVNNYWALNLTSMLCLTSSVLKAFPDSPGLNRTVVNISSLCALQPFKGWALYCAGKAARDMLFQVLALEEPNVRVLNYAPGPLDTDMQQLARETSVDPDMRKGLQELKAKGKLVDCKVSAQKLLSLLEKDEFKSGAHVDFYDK

Row | SMILES | IC50
1 | CC(C)Cn1c(=O)c(C(=O)NC2CC2)c(O)n2ncc(/C=C/C(=O)N3CCO[C@H](C(F)(F)F)C3)c12 [compound 530, (S,E)-N-Cyclopropyl-7-hydroxy-4-isobutyl-5-oxo-3-(3-oxo-3-(2-(trifluoromethyl)morpholino)prop-1-en-1-yl)-4,5-dihydropyrazolo[1,5-a]pyrimidine-6-carboxamide] | 1.14 nM
2 | COC[C@H]1COCCN1C(=O)/C=C/c1cnn2c(O)c(C(=O)NC3CC3)c(=O)n(CC(C)C)c12 [compound 531, (S,E)-N-Cyclopropyl-7-hydroxy-4-isobutyl-3-(3-(3-(methoxymethyl)morpholino)-3-oxoprop-1-en-1-yl)-5-oxo-4,5-dihydropyrazolo[1,5-a]pyrimidine-6-carboxamide] | 0.73 nM
3 | COC[C@@H]1COCCN1C(=O)/C=C/c1cnn2c(O)c(C(=O)NC3CC3)c(=O)n(CC(C)C)c12 [compound 532, (R,E)-N-Cyclopropyl-7-hydroxy-4-isobutyl-3-(3-(3-(methoxymethyl)morpholino)-3-oxoprop-1-en-1-yl)-5-oxo-4,5-dihydropyrazolo[1,5-a]pyrimidine-6-carboxamide] | 0.55 nM
4 | CC(C)Cn1c(=O)c(C(=O)NC2CC2)c(O)n2ncc(/C=C/C(=O)N3C4CCC3COC4)c12 [compound 533, (E)-3-(3-(3-Oxa-8-azabicyclo[3.2.1]octan-8-yl)-3-oxoprop-1-en-1-yl)-N-cyclopropyl-7-hydroxy-4-isobutyl-5-oxo-4,5-dihydropyrazolo[1,5-a]pyrimidine-6-carboxamide] | 0.64 nM
5 | CC(C)Cn1c(=O)c(C(=O)NC2CC2)c(O)n2ncc(/C=C/C(=O)N3CCOC[C@H]3C(F)(F)F)c12 [compound 534, (S,E)-N-Cyclopropyl-7-hydroxy-4-isobutyl-5-oxo-3-(3-oxo-3-(3-(trifluoromethyl)morpholino)prop-1-en-1-yl)-4,5-dihydropyrazolo[1,5-a]pyrimidine-6-carboxamide] | 0.87 nM
6 | CC(C)Cn1c(=O)c(C(=O)NC2CC2)c(O)n2ncc(/C=C/C(=O)N3CCCCO3)c12 [compound 535, (E)-3-(3-(1,2-Oxazinan-2-yl)-3-oxoprop-1-en-1-yl)-N-cyclopropyl-7-hydroxy-4-isobutyl-5-oxo-4,5-dihydropyrazolo[1,5-a]pyrimidine-6-carboxamide] | 0.92 nM
7 | CC(C)Cn1c(=O)c(C(=O)NC2CC2)c(O)n2ncc(/C=C/C(=O)N3CCC[C@H]3C)c12 [compound 536, (R,E)-N-Cyclopropyl-7-hydroxy-4-isobutyl-3-(3-(2-methylpyrrolidine-1-yl)-3-oxoprop-1-en-1-yl)-5-oxo-4,5-dihydropyrazolo[1,5-a]pyrimidine-6-carboxamide] | 0.92 nM
8 | CC(C)Cn1c(=O)c(C(=O)NC2CC2)c(O)n2ncc(/C=C/C(=O)N3CCCC3(C)C)c12 [compound 537, (E)-N-Cyclopropyl-3-(3-(2,2-dimethylpyrrolidin-1-yl)-3-oxoprop-1-en-1-yl)-7-hydroxy-4-isobutyl-5-oxo-4,5-dihydropyrazolo[1,5-a]pyrimidine-6-carboxamide] | 0.86 nM
9 | CC(C)Cn1c(=O)c(C(=O)NC2CC2)c(O)n2ncc(/C=C/C(=O)N3C[C@H]4C[C@@H]3CO4)c12 [compound 538, 3-((E)-3-((1R,4R)-2-Oxa-5-azabicyclo[2.2.1]heptan-5-yl)-3-oxoprop-1-en-1-yl)-N-cyclopropyl-7-hydroxy-4-isobutyl-5-oxo-4,5-dihydropyrazolo[1,5-a]pyrimidine-6-carboxamide] | 0.69 nM
10 | CC(C)Cn1c(=O)c(C(=O)NC2CC2)c(O)n2ncc(/C=C/C(=O)N3C[C@@H]4C[C@H]3CO4)c12 [compound 539, 3-((E)-3-((1S,4S)-2-Oxa-5-azabicyclo[2.2.1]heptan-5-yl)-3-oxoprop-1-en-1-yl)-N-cyclopropyl-7-hydroxy-4-isobutyl-5-oxo-4,5-dihydropyrazolo[1,5-a]pyrimidine-6-carboxamide] | 0.64 nM
11 | CC[C@@H]1COCCN1C(=O)/C=C/c1cnn2c(O)c(C(=O)NC3CC3)c(=O)n(CC(C)C)c12 [compound 540, (R,E)-N-Cyclopropyl-3-(3-(3-ethylmorpholino)-3-oxoprop-1-en-1-yl)-7-hydroxy-4-isobutyl-5-oxo-4,5-dihydropyrazolo[1,5-a]pyrimidine-6-carboxamide] | 0.66 nM
12 | CC(C)Cn1c(=O)c(C(=O)NC2CC2)c(O)n2ncc(/C=C/C(=O)N3CCOCC34CC4)c12 [compound 541, (E)-N-Cyclopropyl-7-hydroxy-4-isobutyl-5-oxo-3-(3-oxo-3-(7-oxa-4-azaspiro[2.5]octan-4-yl)prop-1-en-1-yl)-4,5-dihydropyrazolo[1,5-a]pyrimidine-6-carboxamide] | 0.82 nM
13 | CC(C)Cn1c(=O)c(C(=O)NC2CC2)c(O)n2ncc(/C=C/C(=O)N3C4CCCC3COC4)c12 [compound 542, (E)-3-(3-(3-Oxa-9-azabicyclo[3.3.1]nonan-9-yl)-3-oxoprop-1-en-1-yl)-N-cyclopropyl-7-hydroxy-4-isobutyl-5-oxo-4,5-dihydropyrazolo[1,5-a]pyrimidine-6-carboxamide] | 0.78 nM
14 | CC(C)Cn1c(=O)c(C(=O)NC2CC2)c(O)n2ncc(/C=C/C(=O)N3CCCCCO3)c12 [compound 543, (E)-3-(3-(1,2-Oxazepan-2-yl)-3-oxoprop-1-en-1-yl)-N-cyclopropyl-7-hydroxy-4-isobutyl-5-oxo-4,5-dihydropyrazolo[1,5-a]pyrimidine-6-carboxamide] | 0.97 nM
15 | CC[C@H]1COCCN1C(=O)/C=C/c1cnn2c(O)c(C(=O)NC3CC3)c(=O)n(CC(C)C)c12 [compound 544, (S,E)-N-Cyclopropyl-3-(3-(3-ethylmorpholino)-3-oxoprop-1-en-1-yl)-7-hydroxy-4-isobutyl-5-oxo-4,5-dihydropyrazolo[1,5-a]pyrimidine-6-carboxamide] | 0.95 nM
16 | CC(C)Cn1c(=O)c(C(=O)N[C@@H](C)C(F)(F)F)c(O)n2ncc(/C=C/C(=O)N3CCOCC3)c12 [compound 545, (S,E)-7-Hydroxy-4-isobutyl-3-(3-morpholino-3-oxoprop-1-en-1-yl)-5-oxo-N-(1,1,1-trifluoropropan-2-yl)-4,5-dihydropyrazolo[1,5-a]pyrimidine-6-carboxamide] | 0.66 nM
17 | CC(C)Cn1c(=O)c(C(=O)NC2CC2)c(O)n2ncc(/C=C/C(=O)N3CCOCC34CCC4)c12 [compound 547, (E)-N-Cyclopropyl-7-hydroxy-4-isobutyl-5-oxo-3-(3-oxo-3-(8-oxa-5-azaspiro[3,5]nonan-5-yl)prop-1-en-1-yl)-4,5-dihydropyrazolo[1,5-a]pyrimidine-6-carboxamide] | 0.74 nM
18 | COC[C@H]1CCCN1C(=O)/C=C/c1cnn2c(O)c(C(=O)NC3CC3)c(=O)n(CC(C)C)c12 [compound 548, (R,E)-N-Cyclopropyl-7-hydroxy-4-isobutyl-3-(3-(2-(methoxymethyl)pyrrolidin-1-yl)-3-oxoprop-1-en-1-yl)-5-oxo-4,5-dihydropyrazolo[1,5-a]pyrimidine-6-carboxamide] | 0.79 nM
19 | COC[C@@H]1CCCN1C(=O)/C=C/c1cnn2c(O)c(C(=O)NC3CC3)c(=O)n(CC(C)C)c12 [compound 549, (S,E)-N-Cyclopropyl-7-hydroxy-4-isobutyl-3-(3-(2-(methoxymethyl)pyrrolidine-1-yl)-3-oxoprop-1-en-1-yl)-5-oxo-4,5-dihydropyrazolo[1,5-a]pyrimidine-6-carboxamide] | 0.73 nM
20 | CC(C)Cn1c(=O)c(C(=O)NCC(F)(F)F)c(O)n2ncc(/C=C/C(=O)N3CCOCC3)c12 [compound 552, (E)-7-Hydroxy-4-isobutyl-3-(3-morpholino-3-oxoprop-1-en-1-yl)-5-oxo-N-(2,2,2-trifluoroethyl)-4,5-dihydropyrazolo[1,5-a]pyrimidine-6-carboxamide] | 0.88 nM
21 | CC(C)Cn1c(=O)c(C(=O)NC2CC2)c(O)n2ncc(/C=C/C(=O)N3CCC3)c12 [compound 553, (E)-3-(3-(Azetidin-1-yl)-3-oxoprop-1-en-1-yl)-N-cyclopropyl-7-hydroxy-4-isobutyl-5-oxo-4,5-dihydropyrazolo[1,5-a]pyrimidine-6-carboxamide] | 0.99 nM
22 | CC(C)Cn1c(=O)c(C(=O)NC2CC2)c(O)n2ncc(/C=C/C(=O)N3CC(F)C3)c12 [compound 554, (E)-N-Cyclopropyl-3-(3-(3-fluoroazetidin-1-yl)-3-oxoprop-1-en-1-yl)-7-hydroxy-4-isobutyl-5-oxo-4,5-dihydropyrazolo[1,5-a]pyrimidine-6-carboxamide] | 0.77 nM
23 | CC(C)Cn1c(=O)c(C(=O)NC2CC2)c(O)n2ncc(/C=C/C(=O)N3CC(F)(F)C3)c12 [compound 555, (E)-N-Cyclopropyl-3-(3-(3,3-difluoroazetidin-1-yl)-3-oxoprop-1-en-1-yl)-7-hydroxy-4-isobutyl-5-oxo-4,5-dihydropyrazolo[1,5-a]pyrimidine-6-carboxamide] | 0.82 nM
24 | CC(C)Cn1c(=O)c(C(=O)NC2CC2)c(O)n2ncc(/C=C/C(=O)N3[C@H](C)COC[C@H]3C)c12 [compound 556, N-Cyclopropyl-3-((E)-3-((3R,5R)-3,5-dimethylmorpholino)-3-oxoprop-1-en-1-yl)-7-hydroxy-4-isobutyl-5-oxo-4,5-dihydropyrazolo[1,5-a]pyrimidine-6-carboxamide] | 0.62 nM
25 | CC(C)Cn1c(=O)c(C(=O)NC2CC2)c(O)n2ncc(/C=C/C(=O)N3[C@H](C)COC[C@@H]3C)c12 [compound 557, N-Cyclopropyl-3-((E)-3-(cis-3,5-dimethylmorpholino)-3-oxoprop-1-en-1-yl)-7-hydroxy-4-isobutyl-5-oxo-4,5-dihydropyrazolo[1,5-a]pyrimidine-6-carboxamide] | 0.81 nM
26 | COC1CN(C(=O)/C=C/c2cnn3c(O)c(C(=O)NC4CC4)c(=O)n(CC(C)C)c23)C1 [compound 558, (E)-N-Cyclopropyl-7-hydroxy-4-isobutyl-3-(3-(3-methoxyazetidin-1-yl)-3-oxoprop-1-en-1-yl)-5-oxo-4,5-dihydropyrazolo[1,5-a]pyrimidine-6-carboxamide] | 1.14 nM
